Assay results reported in patent US20200347347A1, “COMPOSITIONS AND METHODS FOR IMPROVED GAMETE VIABILITY AND FUNCTION” (Premium Genetics [UK] Ltd., priority 2017, published 2020).

Legend:
[1] = test system: sperm cells; test: Progressive motility of extended ejaculate stored at 19° C. (CASA); assay type: cell-based, bovine; conditions: SVFEM supplemented with 3 mM NaF normalized to 0 mM NaF; 24 hours; N=8
Protocol: Progressive motile % was determined using a CASA system. N=10 paired ejaculates.
Ejaculate extension and Incoming Quality Assessment: The volume of the ejaculate was determined using a serological pipette and evenly divided into two tubes. Immediately, within 15 minutes, the SVFEM extender was added in a 1:1 ratio to the SVFEM extended half of the split ejaculate. […] On arrival, GTLS antibiotic solution was added at a 2% v/v of ejaculate.
Within 45 minutes of initial ejaculate collection, the cell concentration and incoming motility parameters were collected. Concentration was determined using a Nucleocounter SP-100™ with Reagent S100 and SP100 cassettes (ChemoMetec Allerod, Denmark). Motility characteristics were calculated by diluting 10 μL sample in 990 μL motility diluent and reading 7 frames each in 2 chambers of Leja 4 chamber capillary slides with a known chamber depth on a Hamilton Thorne IVOS II using HTCasa II software at 60 Hz frame capture speed in a 37° C. enclosed stage with a Zeiss 1× objective.

[2] = test system: sperm cells; test: Outgoing quality control: progressively motile cells per straw after freeze-thaw; assay type: cell-based, bovine; conditions: NaF 0-6 mM in SVFEM
Protocol: After 90 minutes of equilibration at 4° C. the samples were cryoprotected by adding TRIS B (which contains glycerol) to a final concentration of 20% v/v of sample in 3 separate additions, 15 minutes apart. The concentration of progressively motile cells was determined using the Hamilton Thorne IVOS II with HTCasa Animal Breeders II software set to the same capture settings listed above, but with a Xenon light source and an Olympus 10× UplanSApo objective. The cryoprotected sample was diluted to final live, motile cell concentration, 2.5 M/mL, in Packaging Extender and placed in Mini Straws which hold 0.25 mL volume (IMV technologies, Maple Grove, Minn. USA) using an MX4 straw filling and sealing machine (IMV technologies, Maple Grove, Minn. USA). Filled straws were rapidly cooled using a freeze tunnel before storage in liquid nitrogen.
Outgoing Quality Control Assessment: To assess the number of motile cells that survived the freezing process a single straw is thawed in a 37° C. water bath for 45 seconds. The straw is then plunged into a pre-warmed Eppendorf tube. The sample is then gently vortexed 10 seconds to homogenize the sample. After which 20 μLs of sample is added to 20 μLs of QC diluent, gently vortexed for 5 seconds, and read on the CASA fluorescent settings described above.

[3] = test system: sperm cells; test: Motility of semen samples after 24-hour storage in media (Examples 4-7, 10, 11); assay type: cell-based, Angus bull; conditions: Example 10; samples stored for 24 hours
Protocol: Semen sample creation: The media of Example 1 is mixed with semen in a 1:1 volume ratio. Optimal performance is seen when the media was warmed to 37° C. prior to mixing with Angus bull semen, and when the media is added to semen between 10 and 30 minutes post-ejaculation. The media remains effective, however, when mixed with cells 1 hour after ejaculation. After the addition of the media, cells are stored at 19° C. […] In FIG. 33 p=0.017, in a paired t-test. […] Semen samples from Angus bulls (n=4) were taken and tested at the collection, then after storing in the media of Example 1 (SVFEM) for 24 hours. […] Another test was performed to compare samples after 24-hour storage. Semen samples from Angus bulls (n=10) were taken and combined with media. Samples using the inventive media SVFEM were compared to control samples using conventional media. Samples were analyzed to determine whether motility of cells was lost due to storage.

Compound | fall of % progressive motile cells after staining below paired SVFEM group [1] | number of motile cells which survive a freeze/thaw after 24 hours' extension [2] | effect of eliminating the ingredient from SVFEM on motility [3]
[F-].[Na+] [NaF, sodium fluoride] | at least 20% | improved efficacy | 
phosphatidylserine [PS] |  |  | drop in motility
